Values of other authors in US20230285491A1, “COMPOSITION FOR PREVENTION OF DUMPING SYNDROME IN A POST-BARIATRIC SURGERY SETTING” (METAGENICS, INC., priority 2020, published 2023).

Target: T1, GLP-1 receptor (Homo sapiens, UniProt P43220)
T1 construct: GLP-1 receptor antagonism prevented hypoglycemia in all patients and reversed neuroglycopenic symptoms; host or cells: gastric bypass patients (in vivo, endogenous receptor)
Conditions: gastric bypass patients

T1 sequence (P43220 24-463): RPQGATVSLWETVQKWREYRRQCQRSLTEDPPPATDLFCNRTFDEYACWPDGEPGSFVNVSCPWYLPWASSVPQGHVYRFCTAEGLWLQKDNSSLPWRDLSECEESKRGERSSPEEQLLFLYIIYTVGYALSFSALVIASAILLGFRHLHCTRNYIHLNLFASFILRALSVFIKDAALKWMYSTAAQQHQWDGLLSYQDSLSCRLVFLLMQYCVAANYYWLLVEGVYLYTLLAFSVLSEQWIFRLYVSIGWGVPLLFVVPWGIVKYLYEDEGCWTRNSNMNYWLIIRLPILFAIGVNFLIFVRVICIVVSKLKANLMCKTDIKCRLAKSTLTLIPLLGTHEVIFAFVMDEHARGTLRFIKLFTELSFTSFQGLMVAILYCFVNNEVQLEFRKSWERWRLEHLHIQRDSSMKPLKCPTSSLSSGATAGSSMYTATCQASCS

Question: Which “effect on postprandial hypoglycemic and hyperinsulinemic events” value does the source give for Exendin-(9-39) here?
Answer: corrected postprandial hypoglycemic and hyperinsulinemic events
